{"source": "patent US10259777B2", "about": "“(E)-3-(3,4-dihydroxyphenyl)-N-(prop-2-yn-1-yl)acrylamide for treatment of neurodegenerative diseases” (THE UNIVERSITY OF HONG KONG, priority 2015, dated 2019)", "assay_type_in_all_cases": "cell-based, rat", "key": {"[1]": {"tested_on": "β3-tubulin, MAP2 and GAP-43", "assay": "Western blot of neuronal biomarkers in PC12 cells", "settings": "PACA and NGF, alone or in combination", "experimental": "(§1) The neuritogenic potential of PACA was verified by the induction of the main neuronal biomarkers (i.g., β3-tubulin, MAP-2 and GAP43). (A) Representative images for the potentiation of NGF-induced neurite outgrowth in PC12 cells by PACA. PC12 cells were treated with NGF (2 ng/ml) and PACA, alone or in combination. The cells were stained with neurite outgrowth staining kit and imaged under a fluorescence microscope. (B) Quantification of neurite outgrowth in Panel A. Following the staining of neurites, the cells bearing neurites longer than 20 μm were counted under a fluorescence microscope. **, p<0.01 (sample vs NGF alone). (C) Western blot analysis of neuronal biomarkers. The cells were treated with NGF and PACA, alone or in combination, whereas the control cells were treated with vehicle for 72 hours. The cellular proteins were extracted and detected by Western blot analysis for the expression of neuron marker. GAPDH was detected as the control of protein loading.\nThe neuritogenic activity of PACA was evaluated in rat dopaminergic PC12 cells. […] The cells were stained by a neurite outgrowth kit, and subsequently analyzed for neurites (>20 μm) under a fluorescence microscope. […] Following the treatment with PACA and NGF, alone or in combination, PC12 cells were analyzed by Western blotting for the expression of neuronal biomarkers (i.g., β3-tubulin, MAP2 and GAP-43)."}, "PC12 cells [2]": {"tested_on": "PC12 cells", "assay": "6-OHDA-induced neurotoxicity in PC12 cells, MTT cell viability", "settings": "6-OHDA with or without PACA, 24 hours", "experimental": "Neurotoxin 6-hydroxydopamine (6-OHDA) is widely used to induce the cell model of human Parkinsonism. PC12 cells were treated with 6-OHDA with or without PACA for 24-hours, the cell viability was assessed by the colorimetric MTT assay. The relative cell viability was plotted against the concentrations of PACA. On the other hand, primary midbrain neurons were isolated from 17-day-old Sprague Dawley (SD) rat embryos. The midbrain neurons were treated with 6-OHDA with or without PACA for 12-hours, the cell viability was assessed by the colorimetric MTT assay. Alternatively, the neurons were stained with 5 μM of Hoechst 33342 and 1 μM of PI in the differentiation medium at 37° C. for 30 min. The images were captured on a Zeiss fluorescence microscope. (A) MTT assay of the cell viability in PC 12 cells. […] PI-positive and Hoechst 33342-stained neurons were counted under a fluorescence microscope. […]\nNeurotoxin 6-hydroxydopamine (6-OHDA) is widely used to induce the cell model of human Parkinsonism. PC12 cells were treated with 6-OHDA with or without PACA for 24-hours, the cell viability was assessed by the colorimetric MTT assay. […] The midbrain neurons were treated with 6-OHDA with or without PACA for 12-hours, the cell viability was assessed by the colorimetric MTT assay. […] The images were captured on a Zeiss fluorescence microscope."}, "PC12 cells [3]": {"tested_on": "PC12 cells", "assay": "NGF-induced neurite outgrowth (neuritogenic activity) in PC12 cells", "settings": "72 hours", "experimental": "as §1\nThe neuritogenic activity of PACA was evaluated in rat dopaminergic PC12 cells. PC12 cells were treated with NGF (2 ng/mL) alone or in combination with PACA at the concentrations of 5, 10, 20 μM for 72 hours. The cells were stained by a neurite outgrowth kit, and subsequently analyzed for neurites (>20 μm) under a fluorescence microscope. […] Following the treatment with PACA and NGF, alone or in combination, PC12 cells were analyzed by Western blotting for the expression of neuronal biomarkers (i.g., β3-tubulin, MAP2 and GAP-43)."}, "heme oxygenase-1 (HO-1)": {"tested_on": "heme oxygenase-1 (HO-1)", "assay": "HO-1 induction in PC12 cells, Western blot", "settings": "PACA 5 to 100 μM for 24 hours or 20 μM for 3, 6, 12, 24 hours", "experimental": "Induction of HO-1 expression is a key mechanism underlying the neuritogenic effects of PACA. (A & B) Western blot analysis of HO-1 induction. Following PACA treatment at different concentrations (A) and for different time points (B), the cellular proteins were isolated and analyzed by Western blotting for HO-1 expression. GAPDH was analyzed as the control of protein loading. (C) PACA stimulated neurite outgrowth via HO-1-mediated mechanism. PC12 cells were treated with NGF (2 ng/ml) in combination with PACA (5 μM, 20 μM) in presence or absence of HO-1 inhibitor SnPP for 72 hours. Cells were stained by neurite outgrowth staining kit and imaged under a fluorescence microscope. (D) Role of HO-1 induction in the neuritogenic activity of PACA. The images captured in Panel C were analyzed for the number of neurite bearing cells. The cells bearing neurites longer than 20 μm were counted. The values represent means±SD (n=3). **, p<0.01 (+SnPP vs −SnPP).\nIt is well-known that direct modification of Keap1 causes the dissociation of the Nrf2-Keap1 complex and subsequent expression of heme oxygenase-1 (HO-1). Following the treatment with PACA at the concentrations ranging from 5 to 100 μM for 24 hours or at the concentration of 20 μM for 3, 6, 12, 24 hours, PC12 cells were analyzed by Western blotting for HO-1 induction."}}, "data": [{"smiles": "C#CCNC(=O)/C=C/c1ccc(O)c(O)c1", "note": "[PACA, (E)-3-(3,4-dihydroxyphenyl)-N-(prop-2-yn-1-yl)acrylamide]", "values": [{"measurement": "induction of neuronal markers β3-tubulin, MAP2 and GAP-43", "setting": "[1]", "value": "enhanced the neuritogenic activity of NGF in a concentration-dependent manner"}, {"measurement": "6-OHDA neurotoxicity in PC12 cells", "setting": "PC12 cells [2]", "value": "attenuated 6-hydroxydopamine (6-OHDA) neurotoxicity"}, {"measurement": "neurite outgrowth by compound alone", "setting": "PC12 cells [3]; PACA 20 μM alone", "value": "did not induce neurite outgrowth"}, {"measurement": "increase in number of neurite-bearing cells relative to NGF alone", "setting": "PC12 cells [3]; PACA 20 μM and NGF 2 ng/mL in combination", "value": "~6", "unit": "fold"}, {"measurement": "potentiation of NGF-induced neurite outgrowth", "setting": "PC12 cells [3]; PACA 5, 10, 20 μM with NGF 2 ng/mL, neurites >20 μm, compared with NGF alone", "value": "significantly potentiated NGF-induced neurite outgrowth in a concentration-dependent manner"}, {"measurement": "HO-1 expression", "setting": "heme oxygenase-1 (HO-1)", "value": "induced HO-1 expression in a time- and concentration-dependent manner"}]}]}
